Where two headings read alike, the source gives them in different places.
Experiments:
[1] = tested on: cancer multicellular spheroids formed from HCT116 cells; assay: 3D multicellular spheroids culture, alamar blue assay; assay type: cell-based, human; conditions: Homo sapiens
Experimental: (§1) Cell viability was quantified using the alamar blue assay, according to Ahmed et al.. Cells were inserted in 96-well plates for all experiments (7 x 10^4 cells/mL for adherent cells or 3 x 10^5 cells/mL for suspended cells in 100 μL of medium). […] Negative controls received the vehicle that was used for diluting the compounds tested.
HCT116 cells were cultivated in 3D multicellular spheroids. Briefly, 100 μL of a solution of cells (0.5 x 10^6 cells/mL) were inserted in 96-well plate with a cell-repellent surface (Greiner Bio-One, Kremsmünster, Austria) and cultured in RPMI 1640 medium with 10% fetal bovine serum, 2 mM glutamine, 3% matrigel (BD Biosciences, San Jose, CA, EUA) and 50 μg/mL gentamycin at 37°C with 5% CO2. […] Negative control received the vehicle that was used for diluting the compounds tested. In the end of the experiment, morphological changes were examined by light microscopy (Olympus BX41, Tokyo, Japan) using Image-Pro software (Media Cybernetics, Inc. Silver Spring, USA) and the cell viability was determined by alamar blue assay as described above.

[2] = tested on: BAD KO SV40 MEF (BAD gene knockout immortalized mouse embryonic fibroblast); assay: Cytotoxic activity, alamar blue assay, BAD KO SV40 MEF; assay type: cell-based; conditions: Mus musculus, Fibroblast
Source text: (§2) HCT116 (human colon carcinoma), HepG2 (human hepatocellular carcinoma), HSC-3 (human oral squamous cell carcinoma), SCC-4 (human oral squamous cell carcinoma), SCC-9 (human oral squamous cell carcinoma), HL-60 (human promyelocytic leukemia), K-562 (human chronic myelogenous leukemia), B16-F10 (murine melanoma), MRC-5 (human lung fibroblast), WT SV40 MEF (wild-type immortalized mouse embryonic fibroblast) and BAD KO SV40 MEF (BAD gene knockout immortalized mouse embryonic fibroblast) cell lines were obtained from the American Type Culture Collection (ATCC, Manassas, VA, USA) and cultured in RPMI-1640 medium (Gibco-BRL, Gaithersburg, MD, USA) with 10% fetal bovine serum (Life, Carlsbad, CA, USA), 2 mM L-glutamine (Vetec Química Fina, Duque de Caxias, RJ, Brazil) and 50 μg/mL gentamycin (Life, Carlsbad, CA, USA). Adherent cells were collected by treatment with 0.25% trypsin EDTA solution (Gibco-BRL, Gaithersburg, MD, USA). All cell lines were cultured in flasks at 37°C in 5% CO2 and sub-cultured every 3-4 days to maintain exponential growth.
as §1

[3] = tested on: HCT116 cells; assay: Internucleosomal DNA fragmentation and cell cycle distribution (DNA content, flow cytometry); assay type: cell-based, human; conditions: mean ± S.E.M.
Experimental: Cells were harvested in a permeabilization solution containing 0.1% triton X-100 (Sigma Chemical Co. St Louis, MO, USA), 2 μg/mL propidium iodide (Sigma Chemical Co. St Louis, MO, USA), 0.1% sodium citrate and 100 μg/mL RNAse (Sigma Chemical Co. St Louis, MO, USA) and incubated in the dark for 15 min at room temperature.

[4] = tested on: SCC-9 (human oral squamous cell carcinoma); assay: Cytotoxic activity, alamar blue assay, SCC-9; assay type: cell-based
Source text: as §2, §1

[5] = tested on: calf thymus DNA (ctDNA); assay: DNA intercalation assay (ethidium bromide displacement); assay type: binding; conditions: ctDNA 15 μg/mL, ethidium bromide 1.5 μM; complexes 5, 10 and 20 μM; doxorubicin 10 μM; data not shown
Experimental: DNA intercalation was assessed by examining the ability of the complexes to displace ethidium bromide from ctDNA (Sigma-Aldrich Co., Saint Louis, MO, USA). Sexplicate assays (100 μL) were conducted in 96-well plates and contained 15 μg/mL ctDNA, 1.5 μM ethidium bromide and 5, 10 and 20 μM of each complexes in saline solution. […] Fluorescence was measured using excitation and emission wavelengths of 320 nm and 600 nm, respectively using the spectraMax Microplate Reader (Molecular Devices, Sunnyvale, CA, EUA).

[6] = tested on: B16-F10 (murine melanoma); assay: Cytotoxic activity, alamar blue assay, B16-F10; assay type: cell-based
Source text: as §2, §1

[7] = tested on: PBMC (human peripheral blood mononuclear cells); assay: Cytotoxic activity, alamar blue assay, PBMC non-cancer cells; assay type: cell-based; conditions: Homo sapiens
Experimental: PBMCs were washed and resuspended at a concentration of 3 x 10^5 cells/mL in RPMI 1640 medium with 20% fetal bovine serum, 2 mM glutamine and 50 μg/mL gentamycin at 37°C with 5% CO2. […] The Research Ethics Committee of the Oswaldo Cruz Foundation (Salvador, Bahia, Brazil) approved the experimental protocol (# 031019/2013). All participants signed a written informed consent to participate in the study.
as §1

[8] = tested on: MRC-5 (human lung fibroblast); assay: Cytotoxic activity, alamar blue assay, MRC-5 non-cancer cells; assay type: cell-based; conditions: Homo sapiens
Source text: as §2, §1

[9] = tested on: K-562 (human chronic myelogenous leukemia); assay: Cytotoxic activity, alamar blue assay, K-562; assay type: cell-based
Source text: as §2, §1

[10] = tested on: HCT116 (human colon carcinoma); assay: Cytotoxic activity, alamar blue assay, HCT116; assay type: cell-based
Source text: as §2, §1

[11] = tested on: HCT116 cells; assay: Cellular reactive oxygen species levels (DCF-DA); assay type: cell-based, human; conditions: 1 h, PL 10 μM
Experimental: The levels of ROS were measured according to previously described using DCF-DA (Sigma-Aldrich Co., Saint Louis, MO, USA). In brief, cells were treated with the complexes for 1 and 3 h. Then, the cells were collected, washed with saline and resuspended in FACS tubes with saline containing 5 μM DCF-DA for 30 min.

[12] = tested on: caspase-3; assay: Caspase-3 activation assay (DEVD-pNA, colorimetric); conditions: HCT116, DEVD-pNA, 48h; PL 10 μM
Experimental: (§3) To investigate the mechanisms involved in cytotoxic action of the complexes, a new set of experiments was performed. In all experiments, 2 mL of a HCT116 cell solution (7 x 10^4 cells/mL) was inserted in 24-well plates and incubated overnight to allow the cells to adhere to the plate surface. […] The negative control was treated with the vehicle (0.1% of a solution containing 70% sorbitol, 25% tween 80 and 5% water) used for diluting the compounds tested. […] Cell viability was assessed using trypan blue exclusion assay for all experiments.
A caspase-3 colorimetric assay kit (Sigma-Aldrich Co., Saint Louis, MO, USA) was used to investigate caspase-3 activation on complexes-treated HCT116 cells based on the cleavage of DEVD-pNA and the analysis was performed according to the manufacturer’s instructions. Briefly, cells were lysed by incubation with cell lysis buffer on ice for 10 min and then centrifuged. Enzyme reactions were carried out in a 96-well flat-bottom microplate. To each reaction mixture, 5 μL cell lysate was added. Absorbance at 405 nm was measured using the SpectraMax 190 Microplate Reader (Molecular Devices, Sunnyvale, CA, EUA). The results were expressed as specific activity (IU/mg protein) of caspase-3.

[13] = tested on: HL-60 (human promyelocytic leukemia); assay: Cytotoxic activity, alamar blue assay, HL-60; assay type: cell-based
Source text: as §2, §1

[14] = tested on: HCT116 cells; assay: Measurement of the mitochondrial transmembrane potential (rhodamine 123); conditions: HCT116, rhodamine 123, 24h; PL 10 μM
Experimental: as §3
Mitochondrial transmembrane potential was determined by the retention of the dye rhodamine 123 [59]. Cells were incubated with rhodamine 123 (5 μg/mL, Sigma-Aldrich Co., Saint Louis, MO, USA) at 37 °C for 15 min in the dark and washed with saline. The cells were then incubated again in saline at 37 °C for 30 min in the dark and cell fluorescence was determined by flow cytometry as described above.

[15] = tested on: HCT116 cells; conditions: HCT116, 24 and 48h; PL 10 μM
Experimental: as §3
For apoptosis detection, we used a FITC Annexin V Apoptosis Detection Kit I (BD Biosciences, San Jose, CA, EUA) and the analysis were performed according to the manufacturer’s instructions. Briefly, the cells treated were collected after the indicated time, washed twice with cold saline and resuspended in 300 μL binding buffer. Then, it was added 5 μL of Annexin V-FITC staining buffer and 5 μL of propidium iodide. The mixture was incubated in the dark at 37°C for 15 min. Cell fluorescence was measured by flow cytometry as described above.
In a new set of experiments, the cells were pre-treated for 1 h with 5 mM NAC, then incubated with the complexes in the established concentration for 48 h. The cells were then trypsinized and the FITC Annexin V Apoptosis Detection assay and trypan blue exclusion assay were conducted as described above.

## COc1cccc2c1C(=O)c1c(O)c3c(c(O)c1C2=O)C[C@@](O)(C(=O)CO)C[C@@H]3O[C@H]1C[C@H](N)[C@H](O)[C@H](C)O1 [Doxorubicin]
[1]; HCT-116, 3D spheroids of HCT116, 72 h treatment, alamar blue, read-out: IC50
  IC50: 6.3 µM
[2]; BAD KO SV40 MEF, 72 h incubation, alamar blue, read-out: IC50
  IC50: 0.41 µM
[3]; HCT116, 1 μM, 24h
  DNA content (%) G0/G1: 22.1 ± 2.4%
  DNA content (%) G2/M: 59.0 ± 2.8 %
  DNA content (%) Sub-G0/G1: 5.2 ± 1.4%
[3]; HCT116, 1 μM, 48h
  DNA content (%) G0/G1: 15.8 ± 2.0 %
  DNA content (%) G2/M: 49.0 ± 5.9 %
  DNA content (%) Sub-G0/G1: 21.8 ± 5.4 %
[4]; Homo sapiens, SCC-9, 72h of incubation, alamar blue, with 95% confidence interval
  IC50: 2.6 µM
[5]
  DNA intercalation (decrease of ethidium bromide fluorescence): significantly reduced fluorescence
[6]; Mus musculus, B16-F10, 72h of incubation, alamar blue, with 95% confidence interval
  IC50: 0.02 µM
[7]; PBMC non-cancer cells, 72h of incubation, alamar blue, with 95% confidence interval, read-out: IC50
  IC50: 5.4 µM
[8]; MRC5, MRC-5 non-cancer cells, 72h of incubation, alamar blue, with 95% confidence interval, read-out: IC50
  IC50: 1.3 µM

## COc1cc(/C=C/C(=O)N2CCC=CC2=O)cc(OC)c1OC [Piplartine]
[1]; HCT-116, 72 h
  IC50: 22.1 µM
[2]; 72 h
  IC50: 4 µM
[9]; Homo sapiens, K562, 72 h
  IC50: 18.6 µM
[9]; SI = IC50[MRC-5]/IC50[K-562]
  Selectivity index (SI): 0.9
[9]; SI = IC50[PBMC]/IC50[K-562]
  Selectivity index (SI): 1.8
[3]; HCT116, 10 μM, 24h
  DNA content (%) G0/G1: 22.7 ± 0.6%
  DNA content (%) G2/M: 21.5 ± 2.9%
  DNA content (%) S: 21.4 ± 2.3%
  DNA content (%) Sub-G0/G1: 20.3%
[3]; HCT116, 10 μM, 24h, listed as PL
  DNA content (%) Sub-G0/G1: 20.3 ± 1.8 %
[3]; HCT116, 10 μM, 48h
  DNA content (%) G0/G1: 27.0 ± 2.9 %
  DNA content (%) G2/M: 21.9 ± 0.9%
  DNA content (%) S: 16.4 ± 2.2%
  DNA content (%) Sub-G0/G1: 33.9%
[3]; HCT116, 10 μM, 48h, listed as PL
  DNA content (%) Sub-G0/G1: 33.9 ± 5.8 %
[10]; SI = IC50[MRC-5]/IC50[HCT116]
  Selectivity index (SI): 2.7
[10]; SI = IC50[PBMC]/IC50[HCT116]
  Selectivity index (SI): 5.3
[4]; SI = IC50[MRC-5]/IC50[SCC-9]
  Selectivity index (SI): 1.0
[4]; SI = IC50[PBMC]/IC50[SCC-9]
  Selectivity index (SI): 2.1
[11]
  intracellular ROS levels: induced increasing oxidative stress
[12]
  activation of caspase-3: activation of caspase-3
[6]; SI = IC50[MRC-5]/IC50[B16-F10]
  Selectivity index (SI): 1.6
[6]; SI = IC50[PBMC]/IC50[B16-F10]
  Selectivity index (SI): 3.2
[13]; SI = IC50[MRC-5]/IC50[HL-60]
  Selectivity index (SI): 1.3
[13]; SI = IC50[PBMC]/IC50[HL-60]
  Selectivity index (SI): 2.6
[7]; PBMC, 72 h
  IC50: 34.2 µM
[8]; MRC5, 72 h
  IC50: 17.3 µM
[14]
  mitochondrial depolarization: Mitochondrial depolarization
[15]
  early and late apoptosis (annexin-V/PI): induced increasing in the early and late apoptosis
